# Test results from PMC6925188, “PBRM1 acts as a p53 lysine-acetylation reader to suppress renal tumor growth” (Nature Communications, 2019).
# Marks after values point to notes of the source that are not given here.
# Tests used:
# ACHN cells = assay: Cell cycle analysis, ACHN shRNA knockdown cells; type: cell-based; set-up: Sub-G1: unit not given here; conditions: 50 μM
# Procedure: Lysates were analyzed via immunoblots. f, g, h. ACHN control, p53 and p21 shRNA knockdown cells were harvested for […]
# Representative data is shown i n g. […] Source data are provided as a Source
# RCC4 cells = assay: RT-qPCR of p53 targets, RCC4 cells; type: cell-based; set-up: CDKN1A expression / MDM2 expression / GADD45A expression / PUMA expression / NOXA expression: reference not given here; conditions: 24 h; for CDKN1A expression / GADD45A expression / MDM2 expression / NOXA expression / PUMA expression: 100 μM
# Procedure: Lysates were analyzed by immunoblots. c RCC4 cells with or without p53 KO were transfected with vector or Flag-PBRM1 at the indicated amounts. […] Cells were harvested for RT-qPCR (g) or ChIP followed by qPCR (h). […] Representative data is shown in i. Quantification of cell cycle phase is shown in j. Source data are provided as a Source Data file.
# Total RNA was extracted from cells using the RNeasy Plus Mini Kit (74136, Qiagen), and the concentration was measured using the NanoDrop ND-1000 system (Thermo Scientific). Reverse transcription was performed using the First Strand cDNA Synthesis Kit (NP100042, Origen) with 0.5 µg total RNA. Real-time PCR was performed with Maxima SYBR Green qPCR Master Mix (K0253, Thermo Scientific) using the Roche LightCycler 480. […] GAPDH was used as an internal control. Data are shown as mean ± SEM for three independent experiments.
structure (smiles),measurement,setting,value
COc1cc([C@@H]2c3cc4c(cc3[C@@H](O[C@@H]3O[C@@H]5CO[C@@H](C)O[C@H]5[C@H](O)[C@H]3O)[C@H]3COC(=O)[C@H]23)OCO4)cc(OC)c1O [Etoposide],G0/G1,"ACHN cells; ACHN-sh-PBRM1#1, assay 1",10.9
same,G2/M,"ACHN cells; ACHN-sh-PBRM1#1, assay 1",66.9
same,S,"ACHN cells; ACHN-sh-PBRM1#1, assay 1",15.8
same,Sub-G1,"ACHN cells; ACHN-sh-PBRM1#1, assay 1",5.5
same,G0/G1,"ACHN cells; ACHN-sh-PBRM1#1, assay 2",15.3
same,G2/M,"ACHN cells; ACHN-sh-PBRM1#1, assay 2",36.8
same,S,"ACHN cells; ACHN-sh-PBRM1#1, assay 2",33.9
same,Sub-G1,"ACHN cells; ACHN-sh-PBRM1#1, assay 2",12.3
same,G0/G1,"ACHN cells; ACHN-sh-PBRM1#1, assay 3",16.9
same,G2/M,"ACHN cells; ACHN-sh-PBRM1#1, assay 3",39.4
same,S,"ACHN cells; ACHN-sh-PBRM1#1, assay 3",35.3
same,Sub-G1,"ACHN cells; ACHN-sh-PBRM1#1, assay 3",6.8
same,G0/G1,"ACHN cells; ACHN-sh-PBRM1#2, assay 1",50.7
same,G2/M,"ACHN cells; ACHN-sh-PBRM1#2, assay 1",29.4
same,S,"ACHN cells; ACHN-sh-PBRM1#2, assay 1",17.3
same,Sub-G1,"ACHN cells; ACHN-sh-PBRM1#2, assay 1",1.2
same,G0/G1,"ACHN cells; ACHN-sh-PBRM1#2, assay 2",45.9
same,G2/M,"ACHN cells; ACHN-sh-PBRM1#2, assay 2",20.7
same,S,"ACHN cells; ACHN-sh-PBRM1#2, assay 2",26.7
same,Sub-G1,"ACHN cells; ACHN-sh-PBRM1#2, assay 2",5
same,G0/G1,"ACHN cells; ACHN-sh-PBRM1#2, assay 3",48.7
same,G2/M,"ACHN cells; ACHN-sh-PBRM1#2, assay 3",22.6
same,S,"ACHN cells; ACHN-sh-PBRM1#2, assay 3",24.8
same,Sub-G1,"ACHN cells; ACHN-sh-PBRM1#2, assay 3",1.6
same,G0/G1,"ACHN cells; ACHN-sh-SCR, assay 1",54.8
same,G2/M,"ACHN cells; ACHN-sh-SCR, assay 1",26.5
same,S,"ACHN cells; ACHN-sh-SCR, assay 1",16.1
same,Sub-G1,"ACHN cells; ACHN-sh-SCR, assay 1",1.5
same,G0/G1,"ACHN cells; ACHN-sh-SCR, assay 2",51.3
same,G2/M,"ACHN cells; ACHN-sh-SCR, assay 2",21.3
same,S,"ACHN cells; ACHN-sh-SCR, assay 2",25.2
same,Sub-G1,"ACHN cells; ACHN-sh-SCR, assay 2",1.4
same,G0/G1,"ACHN cells; ACHN-sh-SCR, assay 3",43.6
same,G2/M,"ACHN cells; ACHN-sh-SCR, assay 3",27
same,S,"ACHN cells; ACHN-sh-SCR, assay 3",25.3
same,Sub-G1,"ACHN cells; ACHN-sh-SCR, assay 3",2.1
same,G0/G1,"ACHN cells; ACHN-sh-p21#1, assay 1",40.5
same,G2/M,"ACHN cells; ACHN-sh-p21#1, assay 1",38.3
same,S,"ACHN cells; ACHN-sh-p21#1, assay 1",18.7
same,Sub-G1,"ACHN cells; ACHN-sh-p21#1, assay 1",1.3
same,G0/G1,"ACHN cells; ACHN-sh-p21#1, assay 2",47.7
same,G2/M,"ACHN cells; ACHN-sh-p21#1, assay 2",23.1
same,S,"ACHN cells; ACHN-sh-p21#1, assay 2",27.2
same,Sub-G1,"ACHN cells; ACHN-sh-p21#1, assay 2",1
same,G0/G1,"ACHN cells; ACHN-sh-p21#1, assay 3",48.6
same,G2/M,"ACHN cells; ACHN-sh-p21#1, assay 3",22.6
same,S,"ACHN cells; ACHN-sh-p21#1, assay 3",26
same,Sub-G1,"ACHN cells; ACHN-sh-p21#1, assay 3",0.8
same,G0/G1,"ACHN cells; ACHN-sh-p21#2, assay 1",14.3
same,G2/M,"ACHN cells; ACHN-sh-p21#2, assay 1",65.7
same,S,"ACHN cells; ACHN-sh-p21#2, assay 1",15.1
same,Sub-G1,"ACHN cells; ACHN-sh-p21#2, assay 1",4
same,G0/G1,"ACHN cells; ACHN-sh-p21#2, assay 2",11.9
same,G2/M,"ACHN cells; ACHN-sh-p21#2, assay 2",48.4
same,S,"ACHN cells; ACHN-sh-p21#2, assay 2",31.1
same,Sub-G1,"ACHN cells; ACHN-sh-p21#2, assay 2",6.9
same,G0/G1,"ACHN cells; ACHN-sh-p21#2, assay 3",14.7
same,G2/M,"ACHN cells; ACHN-sh-p21#2, assay 3",42.4
same,S,"ACHN cells; ACHN-sh-p21#2, assay 3",35.8
same,Sub-G1,"ACHN cells; ACHN-sh-p21#2, assay 3",5.3
same,G0/G1,"ACHN cells; ACHN-sh-p53, assay 1",6.3
same,G2/M,"ACHN cells; ACHN-sh-p53, assay 1",68.3
same,S,"ACHN cells; ACHN-sh-p53, assay 1",16.5
same,Sub-G1,"ACHN cells; ACHN-sh-p53, assay 1",6.2
same,G0/G1,"ACHN cells; ACHN-sh-p53, assay 2",11.6
same,G2/M,"ACHN cells; ACHN-sh-p53, assay 2",30
same,S,"ACHN cells; ACHN-sh-p53, assay 2",34.2
same,Sub-G1,"ACHN cells; ACHN-sh-p53, assay 2",20.3
same,G0/G1,"ACHN cells; ACHN-sh-p53, assay 3",10.6
same,G2/M,"ACHN cells; ACHN-sh-p53, assay 3",39
same,S,"ACHN cells; ACHN-sh-p53, assay 3",34.6
same,Sub-G1,"ACHN cells; ACHN-sh-p53, assay 3",11.3
same,expression of p53 downstream targets with PBRM1 restoration,"RCC4 cells; 100 μM etoposide, RCC4",up-regulated by restoration of PBRM1 but not PBRM1 BD4*
same,CDKN1A expression,"RCC4 cells; RCC4-GFP, assay 1",49.6546
same,GADD45A expression,"RCC4 cells; RCC4-GFP, assay 1",6.5687
same,MDM2 expression,"RCC4 cells; RCC4-GFP, assay 1",12.9102
same,NOXA expression,"RCC4 cells; RCC4-GFP, assay 1",7.6934
same,PUMA expression,"RCC4 cells; RCC4-GFP, assay 1",10.0905
same,CDKN1A expression,"RCC4 cells; RCC4-GFP, assay 2",44.3116
same,GADD45A expression,"RCC4 cells; RCC4-GFP, assay 2",5.0617
same,MDM2 expression,"RCC4 cells; RCC4-GFP, assay 2",12.821
same,NOXA expression,"RCC4 cells; RCC4-GFP, assay 2",9.2403
same,PUMA expression,"RCC4 cells; RCC4-GFP, assay 2",12.0208
same,CDKN1A expression,"RCC4 cells; RCC4-GFP, assay 3",55.0506
same,GADD45A expression,"RCC4 cells; RCC4-GFP, assay 3",5.7956
same,MDM2 expression,"RCC4 cells; RCC4-GFP, assay 3",12.4332
same,NOXA expression,"RCC4 cells; RCC4-GFP, assay 3",9.8148
same,PUMA expression,"RCC4 cells; RCC4-GFP, assay 3",9.8829
same,CDKN1A expression,"RCC4 cells; RCC4-PBRM1-BD4*, assay 1",45.9041
same,GADD45A expression,"RCC4 cells; RCC4-PBRM1-BD4*, assay 1",6.7644
same,MDM2 expression,"RCC4 cells; RCC4-PBRM1-BD4*, assay 1",11.4101
same,NOXA expression,"RCC4 cells; RCC4-PBRM1-BD4*, assay 1",9.833
same,PUMA expression,"RCC4 cells; RCC4-PBRM1-BD4*, assay 1",10.713
same,CDKN1A expression,"RCC4 cells; RCC4-PBRM1-BD4*, assay 2",43.4526
same,GADD45A expression,"RCC4 cells; RCC4-PBRM1-BD4*, assay 2",6.5588
same,MDM2 expression,"RCC4 cells; RCC4-PBRM1-BD4*, assay 2",13.589
same,NOXA expression,"RCC4 cells; RCC4-PBRM1-BD4*, assay 2",9.0815
same,PUMA expression,"RCC4 cells; RCC4-PBRM1-BD4*, assay 2",12.1902
same,CDKN1A expression,"RCC4 cells; RCC4-PBRM1-BD4*, assay 3",51.1258
same,GADD45A expression,"RCC4 cells; RCC4-PBRM1-BD4*, assay 3",6.6252
same,MDM2 expression,"RCC4 cells; RCC4-PBRM1-BD4*, assay 3",12.0244
same,NOXA expression,"RCC4 cells; RCC4-PBRM1-BD4*, assay 3",9.5044
same,PUMA expression,"RCC4 cells; RCC4-PBRM1-BD4*, assay 3",12.2164
same,CDKN1A expression,"RCC4 cells; RCC4-PBRM1, assay 1",70.754
same,GADD45A expression,"RCC4 cells; RCC4-PBRM1, assay 1",7.8588
same,MDM2 expression,"RCC4 cells; RCC4-PBRM1, assay 1",16.2786
same,NOXA expression,"RCC4 cells; RCC4-PBRM1, assay 1",11.5749
same,PUMA expression,"RCC4 cells; RCC4-PBRM1, assay 1",13.0108
same,CDKN1A expression,"RCC4 cells; RCC4-PBRM1, assay 2",72.9408
same,GADD45A expression,"RCC4 cells; RCC4-PBRM1, assay 2",6.8115
same,MDM2 expression,"RCC4 cells; RCC4-PBRM1, assay 2",15.8174
same,NOXA expression,"RCC4 cells; RCC4-PBRM1, assay 2",11.4155
same,PUMA expression,"RCC4 cells; RCC4-PBRM1, assay 2",15.9071
same,CDKN1A expression,"RCC4 cells; RCC4-PBRM1, assay 3",96.454
same,GADD45A expression,"RCC4 cells; RCC4-PBRM1, assay 3",7.8052
same,MDM2 expression,"RCC4 cells; RCC4-PBRM1, assay 3",16.0682
same,NOXA expression,"RCC4 cells; RCC4-PBRM1, assay 3",13.296
same,PUMA expression,"RCC4 cells; RCC4-PBRM1, assay 3",14.8041
